Test results as given in patent US11524966B1 (Valo Early Discovery, Inc., priority 2017, dated 2022).

biological target: T1, USP28 (USP28-5(1-1077)-TEV-6*His; LifeSensors) (Homo sapiens, UniProt Q96RU2); test: Ubiquitin-Rhodamine 110 Assay for USP28 Activity, Example A-1(b); format: biochemical; conditions: Ubiquitin-Rhodamine 110 assay, Example A-1(b)
T1 construct: construct USP28 (USP28-5(1-1077)-TEV-6*His; LifeSensors); TEV cleavage site (C); 6xHis (C); purchased LifeSensors
T1 sequence (Q96RU2 1-1077): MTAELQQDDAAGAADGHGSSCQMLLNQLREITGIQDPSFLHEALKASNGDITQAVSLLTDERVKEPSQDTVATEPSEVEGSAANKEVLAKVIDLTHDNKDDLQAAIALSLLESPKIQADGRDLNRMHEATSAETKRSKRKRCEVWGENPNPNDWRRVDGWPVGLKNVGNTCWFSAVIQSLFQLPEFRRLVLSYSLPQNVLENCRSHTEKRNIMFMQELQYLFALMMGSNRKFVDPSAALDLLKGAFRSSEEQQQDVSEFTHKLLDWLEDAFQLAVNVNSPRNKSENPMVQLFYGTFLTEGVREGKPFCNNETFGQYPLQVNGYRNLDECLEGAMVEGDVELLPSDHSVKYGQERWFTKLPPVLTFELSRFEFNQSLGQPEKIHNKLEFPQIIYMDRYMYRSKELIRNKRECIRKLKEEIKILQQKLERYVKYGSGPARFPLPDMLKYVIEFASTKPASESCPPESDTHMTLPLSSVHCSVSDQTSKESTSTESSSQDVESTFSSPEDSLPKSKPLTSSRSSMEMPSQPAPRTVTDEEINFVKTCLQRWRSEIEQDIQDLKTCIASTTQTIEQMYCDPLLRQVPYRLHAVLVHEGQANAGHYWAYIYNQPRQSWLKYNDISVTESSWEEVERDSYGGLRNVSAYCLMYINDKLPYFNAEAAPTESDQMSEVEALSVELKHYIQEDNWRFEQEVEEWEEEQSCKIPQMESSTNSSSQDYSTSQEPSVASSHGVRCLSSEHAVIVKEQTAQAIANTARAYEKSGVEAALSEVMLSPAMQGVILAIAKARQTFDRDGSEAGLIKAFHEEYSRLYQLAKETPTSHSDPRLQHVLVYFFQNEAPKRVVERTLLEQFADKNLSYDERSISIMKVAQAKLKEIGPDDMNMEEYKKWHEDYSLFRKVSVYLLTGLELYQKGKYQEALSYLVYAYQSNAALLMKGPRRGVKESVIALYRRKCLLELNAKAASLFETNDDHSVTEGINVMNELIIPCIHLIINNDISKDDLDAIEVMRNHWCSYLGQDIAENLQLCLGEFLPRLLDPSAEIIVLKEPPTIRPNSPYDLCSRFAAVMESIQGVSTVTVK
Procedure, shortened: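 Single-point screening used 10 μM compound with 90 min room-temperature incubation; follow-up dose-responses (25 μM top, 3-fold) used 75 pM USP28 1-1077 construct, 30 min compound preincubation, 25 nM Ub-Rh110, 20 min reaction, citric acid quench. Rh110 fluorescence normalised to no-enzyme and DMSO controls; IC50 from 4-parameter logistic fit.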

Question: Cc1cnc2c(N)c(C(=O)N[C@H]3COc4cc(N5CC6CCC(C5)N6)c(F)cc4C3)sc2n1 (single isomer, unassigned) [Example 40] was tested. Which “USP28 A-1(b) IC50 range” value did it give?
Answer: The value was “+++ (0.05-0.2 μM)”.

Question: For Cc1cnc2c(N)c(C(=O)N[C@@H]3COc4cc(N5CC6CCC(C5)N6)c(F)cc4C3)sc2n1 (single isomer, unassigned) [Example 41], which “USP28 A-1(b) IC50 range” value is on record?
Answer: The value was “+ (>2 μM)”.

Question: With CCc1cnc2sc(C(=O)N[C@H]3COc4cc(N5CCNCC5)ccc4C3)c(N)c2n1 [Example 36, (R)-7-amino-2-ethyl-N-(7-(piperazin-1-yl)chroman-3-yl)thieno[2,3-b]pyrazine-6-carboxamide] as the compound, how does the “USP28 A-1(b) IC50 range” value read?
Answer: The value was “++ (0.2-2 μM)”.

Question: CCc1cnc2sc(C(=O)N[C@@H]3COc4cc(N5CCNCC5)ccc4C3)c(N)c2n1 [Example 37, (S)-7-amino-2-ethyl-N-(7-(piperazin-1-yl)chroman-3-yl)thieno[2,3-b]pyrazine-6-carboxamide] was tested. Which “USP28 A-1(b) IC50 range” value did it give?
Answer: Its value is “+ (>2 μM)”.

Question: For O=C(N[C@H]1COc2cc(N3CCNCC3)ccc2C1)c1cnc2c(ccn2C(F)F)c1 [Example 38, (R)-1-(difluoromethyl)-N-(7-(piperazin-1-yl)chroman-3-yl)-1H-pyrrolo[2,3-b]pyridine-5-carboxamide], which “USP28 A-1(b) IC50 range” value is on record?
Answer: The value was “+ (>2 μM)”.

Question: Which “USP28 A-1(b) IC50 range” value does the source give for O=C(N[C@@H]1COc2cc(N3CCNCC3)ccc2C1)c1cnc2c(ccn2C(F)F)c1 [Example 39, (S)-1-(difluoromethyl)-N-(7-(piperazin-1-yl)chroman-3-yl)-1H-pyrrolo[2,3-b]pyridine-5-carboxamide] here?
Answer: The value was “+ (>2 μM)”.

Question: For Cc1ccc2c(N)c(C(=O)N[C@H]3COc4cc(N5C[C@H]6CNC[C@@H]6C5)ccc4C3)sc2n1 [Example 43, 3-amino-N-((R)-7-((3aR,6aR)-hexahydropyrrolo[3,4-c]pyrrol-2(1H)-yl)chroman-3-yl)-6-methylthieno[2,3-b]pyridine-2-carboxamide], which “USP28 A-1(b) IC50 range” value is on record?
Answer: The value was “+ (>2 μM)”.

Question: Cc1ccc2c(N)c(C(=O)N[C@@H]3COc4cc(N5C[C@H]6CNC[C@@H]6C5)ccc4C3)sc2n1 [Example 44, 3-amino-N-((S)-7-((3aR,6aR)-hexahydropyrrolo[3,4-c]pyrrol-2(1H)-yl)chroman-3-yl)-6-methylthieno[2,3-b]pyridine-2-carboxamide] was tested. Which “USP28 A-1(b) IC50 range” value did it give?
Answer: The value was “+ (>2 μM)”.

Question: Nc1c(C(=O)N[C@H]2COc3cc(N4CCNCC4)ccc3C2)sc2nc(C3CC3)sc12 [Example 45] was tested. Which “USP28 A-1(b) IC50 range” value did it give?
Answer: Its value is “++ (0.2-2 μM)”.

Question: Which “USP28 A-1(b) IC50 range” value does the source give for Cc1nc2sc(C(=O)N[C@@H]3COc4cc(N5CC6CCC(C5)N6)c(F)cc4C3)c(N)c2s1 [Example 46, N-((3S)-7-(3 8-diazabicyclo[3.2.1]octan-3-yl)-6-fluorochroman-3-yl)-6-amino-2-methylthieno[2,3-d]thiazole-5-carboxamide] here?
Answer: Its value is “++ (0.2-2 μM)”.

Question: Cc1nc2sc(C(=O)N[C@H]3COc4cc(N5CC6CCC(C5)N6)c(F)cc4C3)c(N)c2s1 [Example 47, N-((3R)-7-(3,8-diazabicyclo[3.2.1]octan-3-yl)-6-fluorochroman-3-yl)-6-amino-2-methylthieno[2,3-d]thiazole-5-carboxamide] was tested. Which “USP28 A-1(b) IC50 range” value did it give?
Answer: The value was “+ (>2 μM)”.

Question: With Cc1ccc2c(N)c(C(=O)N[C@H]3COc4cc(N5CCNCC5)cc(Cl)c4C3)sc2n1 [Example 48, (R)-3-amino-N-(5-chloro-7-(piperazin-1-yl)chroman-3-yl)-6-methylthieno[2,3-b]pyridine-2-carboxamide] as the compound, how does the “USP28 A-1(b) IC50 range” value read?
Answer: The value was “+++ (0.05-0.2 μM)”.

Question: Which “USP28 A-1(b) IC50 range” value does the source give for Cc1ccc2c(N)c(C(=O)N[C@@H]3COc4cc(N5CCNCC5)cc(Cl)c4C3)sc2n1 [Example 49, (S)-3-amino-N-(5-chloro-7-(piperazin-1-yl)chroman-3-yl)-6-methylthieno[2,3-b]pyridine-2-carboxamide] here?
Answer: Its value is “+ (>2 μM)”.

Question: O=C(N[C@H]1COc2cc(N3CC4CCC(C3)N4)ccc2C1)c1cnc2c(c1)CCCN2 [Example 50, N-((3R)-7-(3,8-diazabicyclo[3.2.1]octan-3-yl)chroman-3-yl)-5,6,7,8-tetrahydro-1,8-naphthyridine-3-carboxamide] was tested. Which “USP28 A-1(b) IC50 range” value did it give?
Answer: The value was “++ (0.2-2 μM)”.

Question: How did the “USP28 A-1(b) IC50 range” value turn out when O=C(N[C@H]1COc2cc(N3CC4CCC(C3)N4)ccc2C1)c1cnc2c(c1)CCCO2 [Example 51, N-((3R)-7-(3,8-diazabicyclo[3.2.1]octan-3-yl)chroman-3-yl)-3,4-dihydro-2H-pyrano[2,3-b]pyridine-6-carboxamide] was run?
Answer: The value was “+ (>2 μM)”.

Question: For O=C(N[C@H]1COc2cc(N3CCNCC3)ccc2C1)c1ccc(NCc2ccccc2)nc1 [Example 52, (R)-6-(benzylamino)-N-(7-(piperazin-1-yl)chroman-3-yl)nicotinamide], which “USP28 A-1(b) IC50 range” value is on record?
Answer: Its value is “+ (>2 μM)”.

Question: How did the “USP28 A-1(b) IC50 range” value turn out when C[C@H](Nc1ccc(C(=O)N[C@H]2COc3cc(N4CCNCC4)ccc3C2)cn1)c1ccccc1 [Example 53, 6-(((S)-1-phenylethyl)amino)-N-((R)-7-(piperazin-1-yl)chroman-3-yl)nicotinamide] was run?
Answer: The value was “+ (>2 μM)”.

Question: Which “USP28 A-1(b) IC50 range” value does the source give for C[C@@H](Nc1ccc(C(=O)N[C@H]2COc3cc(N4CCNCC4)ccc3C2)cn1)c1ccccc1 [Example 54, 6-(((R)-1-phenylethyl)amino)-N-((R)-7-(piperazin-1-yl)chroman-3-yl)nicotinamide] here?
Answer: Its value is “+ (>2 μM)”.

Question: How did the “USP28 A-1(b) IC50 range” value turn out when Cc1ccc2c(N)c(C(=O)N[C@H]3COc4c(F)c(N5CCNCC5)cc(F)c4C3)sc2n1 [Example 55, (R)-3-amino-N-(5,8-difluoro-7-(piperazin-1-yl)chroman-3-yl)-6-methylthieno[2,3-b]pyridine-2-carboxamide] was run?
Answer: Its value is “++++ (0.001-0.05 μM)”.

Question: For Cc1nc2sc(C(=O)N[C@H]3COc4c(F)c(N5CCNCC5)cc(F)c4C3)c(N)c2s1 [Example 56, (R)-6-amino-N-(5,8-difluoro-7-(piperazin-1-yl)chroman-3-yl)-2-methylthieno[2,3-d]thiazole-5-carboxamide], which “USP28 A-1(b) IC50 range” value is on record?
Answer: The value was “+++ (0.05-0.2 μM)”.

Question: How did the “USP28 A-1(b) IC50 range” value turn out when O=C(N[C@H]1COc2cc(N3CCNCC3)ccc2C1)c1cnc2c(c1)CC[C@H]2O [Example 57, (R)-7-hydroxy-N-((R)-7-(piperazin-1-yl)chroman-3-yl)-6,7-dihydro-5H-cyclopenta[b]pyridine-3-carboxamide] was run?
Answer: Its value is “+ (>2 μM)”.

Question: For O=C(N[C@H]1COc2cc(N3CCNCC3)ccc2C1)c1cnc2c(c1)CC[C@@H]2O [Example 58, (S)-7-hydroxy-N-((R )-7-(piperazin-1-yl)chroman-3-yl)-6,7-dihydro-5H-cyclopenta[b]pyridine-3-carboxamide], which “USP28 A-1(b) IC50 range” value is on record?
Answer: Its value is “+ (>2 μM)”.

Question: For O=C(N[C@H]1COc2cc(N3CCNCC3)ccc2C1)c1cnc2c(ccn2Cc2ccccc2)c1 [Example 59, (R)-1-benzyl-N-(7-(piperazin-1-yl)chroman-3-yl)-1H-pyrrolo[2,3-b]pyridine-5-carboxamide], which “USP28 A-1(b) IC50 range” value is on record?
Answer: Its value is “+++ (0.05-0.2 μM)”.

Question: Which “USP28 A-1(b) IC50 range” value does the source give for Cc1cnc2c(N)c(C(=O)N[C@H]3COc4c(C#N)c(N5CCNCC5)cc(F)c4C3)sc2n1 [Example 60, (R)-7-amino-N-(8-cyano-5-fluoro-7-(piperazin-1-yl)chroman-3-yl)-3-methylthieno[2,3-b]pyrazine-6-carboxamide] here?
Answer: Its value is “++ (0.2-2 μM)”.

Question: Cc1ccc2c(N)c(C(=O)N[C@H]3COc4cc(N5CCNCC5)c(F)c(F)c4C3)sc2n1 [Example 61, (R)-3-amino-N-(5,6-difluoro-7-(piperazin-1-yl)chroman-3-yl)-6-methylthieno[2,3-b]pyridine-2-carboxamide] was tested. Which “USP28 A-1(b) IC50 range” value did it give?
Answer: Its value is “+++ (0.05-0.2 μM)”.

Question: Which “USP28 A-1(b) IC50 range” value does the source give for Cc1ccc2c(N)c(C(=O)N[C@H]3COc4cc([C@H]5CCNC[C@H]5O)ccc4C3)sc2n1 [Example 62, 3-amino-N-((R)-7-((3S,4R)-3-hydroxypiperidin-4-yl)chroman-3-yl)-6-methylthieno[2,3-b]pyridine-2-carboxamide] here?
Answer: The value was “++++ (0.001-0.05 μM)”.

Question: Cc1ccc2c(N)c(C(=O)N[C@H]3COc4cc([C@@H]5CCNC[C@@H]5O)ccc4C3)sc2n1 [Example 63, 3-amino-N-((R)-7-((3R,4S)-3-hydroxypiperidin-4-yl)chroman-3-yl)-6-methylthieno[2,3-b]pyridine-2-carboxamide] was tested. Which “USP28 A-1(b) IC50 range” value did it give?
Answer: Its value is “+++ (0.05-0.2 μM)”.

Question: With C[C@H]1CCc2cc(C(=O)N[C@H]3COc4cc(N5CC6CCC(C5)N6)ccc4C3)cnc2N1 [Example 73, (7S)-N-((3R)-7-(3,8-diazabicyclo[3.2.1]octan-3-yl)chroman-3-yl)-7-methyl-5,6,7,8-tetrahydro-1,8-naphthyridine-3-carboxamide] as the compound, how does the “USP28 A-1(b) IC50 range” value read?
Answer: Its value is “+ (>2 μM)”.
